Read-outs that look alike come from different tables or passages of the source.
Columns and labels:
[1] = tested on: eosinophils; type: cell-based, human; settings: for eosinophil degranulation (EDN release) induced by Alternaria extract: 3 hours at 37° C.
Description: FIG. 9. […] Alternaria extract, trypsin, or PMA was pretreated with pepstatin A agarose, control agarose, or APMSF, and added to the PAR-2 peptide substrate (Panel A) or eosinophils (Panel B).
(§1) To monitor eosinophil function in response to extracts from Alternaria, degranulation of human eosinophils was measured by quantitating released eosinophil-derived neurotoxin (EDN) and/or MBP. In brief, freshly isolated eosinophils were suspended in HBSS with 25 mM HEPES and 0.01% gelatin at 5×10^5 cells/mL. Eosinophils and stimuli were incubated in 96-well tissue culture plates for 3 hours at 37° C. and 5% CO^2. Cell-free supernatants were stored at −20° C. A specific RIA quantitated eosinophil degranulation by measuring the concentration of EDN in the supernatants.

[2] = tested on: BEAS-2B cells; assay: Cytokine production by BEAS-2B airway epithelial cells; type: cell-based, human
Description: FIG. 10. Effects of fungi on IL-6 production by BEAS-2B cells. BEAS-2B cells were incubated with culture extracts of various fungi for 24 hours. IL-6 concentrations in the supernatants were measured by ELISA. *, p<0.05 compared to medium alone, n=3.
FIG. 11. Effects of an aspartate protease inhibitor, ritonavir, on IL-8 production by BEAS-2B cells. Alternaria extract or TNF-α was pretreated with ritonavir and added to BEAS-2B cells. IL-8 concentrations in the supernatants were measured after 24 hours. Data are normalized to the values without ritonavir as 100%. *, p<0.05 compared to no inhibitor, n=4.
Eosinophils may be the only cell that can recognize Alternaria. […] BEAS-2B stimulated with Alternaria also produced other pro-inflammatory factors such as IL-8 and GM-CSF. This Alternaria-induced IL-6 production was inhibited by ATBI, nelfinavir, ritonavir or pepstatin A-agarose treatment of Alternaria extract by about 60% to 90%; ritonavir results are shown in FIG. 11. In contrast, TNF-α-induced IL-6 production was not affected by these treatments. […] Thus, through its aspartate protease activity, Alternaria may activate airway epithelial cells; this activation is partially mediated by PAR-2.

[3] = tested on: PBMCs; assay: PBMC CD4+ T cell proliferation by CFSE labeling; type: cell-based, human; settings: side-by-side experiment, day 7
[4] = tested on: trypsin; assay: Inhibition of trypsin cleavage of PAR-2 peptide substrate; type: biochemical
Source text: (§2) FIG. 9. Effects of protease inhibitors on PAR-2 cleavage activity (Panel A) and EDN release activity (Panel B) of Alternaria extract. Alternaria extract, trypsin, or PMA was pretreated with pepstatin A agarose, control agarose, or APMSF, and added to the PAR-2 peptide substrate (Panel A) or eosinophils (Panel B). In Panel B, *, p<0.05 compared to no inhibitors, n=4.
(§3) A fluorescent quenched peptide substrate (Abz-SKGRSLIGK(Dnp)D) (SEQ ID NO:37), which spans the trypsin-cleavage site (between R and S) of PAR-2 was synthesized, and used it in an in vitro assay for PAR-2 cleavage and activation. […] Alternaria's activity was abolished when aspartate protease(s) was removed from the extract by pepstatin A agarose (FIG. 9); pepstatin A is a highly specific inhibitor for aspartate protease. […] Thus, an aspartate protease(s) in Alternaria extract, but not a serine protease(s), may be involved in the activation of eosinophils through PAR-2. this observation was confirmed by using other aspartate protease inhibitors, including alkalo-thermophilic bacillus inhibitor (ATBI), nelfinavir, and ritonavir.

[5] = tested on: aspartate protease(s) in Alternaria extract; assay: Inhibition of PAR-2 cleavage activity of Alternaria extract; type: biochemical; settings: extract pretreated with inhibitor
Source text: as §2, §3

[6] = target: T1, PAR-2 (Homo sapiens, UniProt P55085); assay: Eosinophil calcium response to Alternaria extract after preincubation with PAR-2 peptides; type: cell-based; settings: preincubation with peptide, 100 μM
T1 construct: endogenous in cells; host or cells: isolated human blood eosinophils
T1 sequence (P55085 26-397): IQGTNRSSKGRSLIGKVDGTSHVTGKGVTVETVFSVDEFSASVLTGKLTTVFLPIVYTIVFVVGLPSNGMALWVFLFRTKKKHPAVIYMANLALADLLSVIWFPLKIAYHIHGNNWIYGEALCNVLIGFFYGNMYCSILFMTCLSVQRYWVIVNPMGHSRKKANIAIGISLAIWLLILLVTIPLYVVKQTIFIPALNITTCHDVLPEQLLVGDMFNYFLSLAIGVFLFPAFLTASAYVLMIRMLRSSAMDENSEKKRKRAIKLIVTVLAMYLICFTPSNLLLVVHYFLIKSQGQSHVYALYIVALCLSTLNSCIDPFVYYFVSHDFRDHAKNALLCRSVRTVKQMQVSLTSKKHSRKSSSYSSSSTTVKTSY
Description: FIG. 8. Desensitization of eosinophil calcium response (Panel A) and EDN release (Panel B) by PAR-2 peptides. Cells were preincubated with PAR-2 agonist (SLIGKV; SEQ ID NO:38), PAR-2 antagonist (LSIGKV; SEQ ID NO:35) or control peptide (GLIVKS; SEQ ID NO:36) (all at 100 μM) before stimulation with Alternaria extract (Panel A) or with Alternaria extract, PAF or PMA (Panel B).
The majority of previous studies in anti-fungal immune responses used the following models: animal infection in in vivo systems (e.g., Candida albicans, Aspergillus fumigatus), or entire fungal hyphae or conidia (e.g., C. albicans, A. fumigatus), a yeast model (e.g., zymosan), and isolated fungal carbohydrate macromolecules (e.g., β-glucan, mannan) in in vitro systems. These studies pointed to roles for TLRs, in particular TLR2 and TLR4, and to other pattern recognition receptors that immune cells, such as macrophages and neutrophils, use to recognize fungi. Because eosinophils express little TLR2 or TLR4 and the active component(s) in Alternaria extract was a heat-labile molecule(s) with an approximate 30-50 kDa molecular mass (FIG. 6), it was speculated that an Alternaria-derived protease(s) (not carbohydrates), interacting with eosinophil PAR-2, may be involved in the eosinophils' responses to Alternaria. Sine no specific small molecule inhibitor for PAR-2 is available, a desensitization approach was used. […] In contrast, degranulation induced by PAF or PMA was not affected by the LSIGKV (SEQ ID NP:35) peptide. Thus, PAR-2 is likely involved in the eosinophils' calcium and degranulation responses to Alternaria extract.

[7] = tested on: patients with CRS; assay: Open-label pilot trial of intranasal amphotericin B in CRS patients
Description: To examine the clinical significance of fungal colonization in CRS, two clinical trials were performed to examine the efficacy of anti-fungal agents. It was hypothesized that anti-fungal agents will reduce the fungal burden in the upper airways, resulting in less antigenic stimulation of immune cells, less airway inflammation, and improved clinical outcomes. […] This prospective, open-label trial used amphotericin B as a medical treatment in 51 randomly selected CRS patients. The antifungal was applied intranasally using 20 mL of a 100 μg/mL solution twice daily for a mean of 11 months (minimum of 3 months).

[8] = tested on: patients with CRS; assay: Randomized, placebo-controlled, double-blind trial of intranasal amphotericin B in CRS patients; type: in vivo, human; settings: 6 months
Description: Second, to address the efficacy of intranasal antifungal agents more objectively, a randomized, placebo-controlled, double-blind, single center trial was performed to treat 30 randomly selected CRS patients. Patients instilled 20 mL amphotericin B (250 μg/mL) or placebo to each nostril twice daily for 6 months. Twenty-four patients completed the 6 months of treatment. […] The changes in the endoscopic scores improved in the amphotericin B group compared to placebo (p=0.038). […] Some patients responded well to the treatment, but others not as well. Thus, fungi may be important in the development of CRS in certain patients.

[9] = tested on: PAR-2 peptide substrate (Abz-SKGRSLIGK(Dnp)D); assay: Fluorescent quenched PAR-2 peptide substrate cleavage assay; type: biochemical
Source text: as §2, §3

[10] = tested on: human eosinophils; assay: Eosinophil degranulation (EDN release) and activation by fungal extracts and proteins; type: cell-based; settings: through PAR-2
Description: FIG. 5. Effects of fungi on eosinophil degranulation. Eosinophils were incubated with culture extracts of various fungi for 3 hours.
FIG. 21. Effects of Trichoderma xylanase on eosinophil degranulation (Panel A). Effects of Trichoderma xylanase on IL-5 production in mouse airways (Panel B). Panel A: Eosinophils were incubated with various concentrations of Trichoderma xylanase for 3 hours. EDN concentrations in the supernatants were measured by RIA as an indicator of degranulation. Panel B: Naive BALB/c mice were exposed intranasally to various doses of Trichoderma xylanase. After 12 hours, BAL fluids were collected and the concentrations of IL-5 were measured by ELISA. Mean±range, n=2.
FIG. 25. Partial characterization of Alternaria extract. A, Before incubation with eosinophils, aliquots of 100 μg/mL Alternaria and 10 ng/mL IL-5 were heated at 37, 56, or 100° C. for 30 min or were treated at 4° C. for 30 min. Eosinophils were incubated in duplicate with these treated stimuli for 3 hours at 37° C. […] The molecular weight calibration of the column is shown above the elution profile.
The following was performed to determine whether human eosinophils have an innate capacity to respond to environmental fungal organisms. Human eosinophils were incubated with extracts from common environmental airborne fungi.
as §1

## Cc1c(O)cccc1C(=O)N[C@@H](CSc1ccccc1)[C@H](O)CN1C[C@H]2CCCC[C@H]2C[C@H]1C(=O)NC(C)(C)C [nelfinavir]
[1]
  eosinophil degranulation (EDN release) induced by Alternaria extract: confirmed
[2]
  TNF-α-induced IL-6 production by BEAS-2B cells: not affected

## alkalo-thermophilic bacillus inhibitor [ATBI]
[1]
  eosinophil degranulation (EDN release) induced by Alternaria extract: confirmed
[2]
  TNF-α-induced IL-6 production by BEAS-2B cells: not affected

## CC(C)c1nc(CN(C)C(=O)N[C@H](C(=O)N[C@@H](Cc2ccccc2)C[C@H](O)[C@H](Cc2ccccc2)NC(=O)OCc2cncs2)C(C)C)cs1 [ritonavir]
[1]
  eosinophil degranulation (EDN release) induced by Alternaria extract: confirmed
[2]
  TNF-α-induced IL-6 production by BEAS-2B cells: not affected

## tetanus toxoid: tetanus toxoid
[3]; CRS patient
  CFSElow CD4+ cells: 43.2%
[3]; normal individual
  CFSElow CD4+ cells: 47.9%

## N=C(N)c1ccc(CS(=O)(=O)F)cc1 [APMSF]
[1]
  eosinophil degranulation (EDN release) induced by Alternaria extract: not
[1]; listed as APSF
  eosinophil degranulation (EDN release) induced by Alternaria extract: did not inhibit
[4]
  PAR-2 peptide cleavage activity of trypsin: inhibited the activity
[5]
  PAR-2 peptide cleavage activity of Alternaria extract: insensitive

## SLIGKV (Synthetically generated oligonucleotide) [PAR-2 agonistic peptide]
[6]
  eosinophils' calcium response to Alternaria extract: significantly inhibited

## LSIGKV (Synthetically generated oligonucleotide) [PAR-2 antagonist]
[1]
  eosinophil degranulation (EDN release) induced by Alternaria extract: significantly and specifically inhibited
[1]; listed as PAR2-inhibitory peptide
  eosinophil degranulation (EDN release) induced by Alternaria extract: inhibited
[1]; peptide 100 μM
  eosinophil degranulation induced by PAF: not affected
  eosinophil degranulation induced by PMA: not affected
[6]
  eosinophils' calcium response to Alternaria extract: also inhibited
[2]; treatment of Alternaria extract or PAR-2 antagonist
  inhibition of Alternaria-induced IL-6 production by BEAS-2B cells: ~40%

## GLIVKS (Synthetically generated oligonucleotide) [control scramble peptide]
[6]
  eosinophils' calcium response to Alternaria extract: showed no effects

## C[C@@H]1[C@H](O)[C@@H](C)/C=C/C=C/C=C/C=C/C=C/C=C/C=C/[C@H](O[C@@H]2O[C@H](C)[C@@H](O)[C@H](N)[C@@H]2O)C[C@@H]2O[C@](O)(C[C@@H](O)C[C@@H](O)[C@H](O)CC[C@@H](O)C[C@@H](O)CC(=O)O[C@H]1C)C[C@H](O)[C@H]2C(=O)O [amphotericin B]
[7]; 13/51 patients
  no effect seen, patients: 25%
[7]; 18/51 patients
  endoscopically disease free, patients: 35%
[7]; additional 20/51 patients
  endoscopically improved by at least one stage, patients: 39%
[7]; intranasal 20 mL of 100 μg/mL twice daily, mean 11 months, 38/51 patients
  improvement of sinusitis symptoms, patients: 75%
[7]; n=12
  inflammatory mucosal thickening on CT scans pre- and post-treatment: significant reduction
[7]; open-label pilot trial
  safety of direct muco-administration: safe
[8]; increase in placebo group, p=0.046
  change in intranasal mucus levels of EDN: a reduction
[8]; p=0.038
  changes in endoscopic scores compared to placebo: improved
[8]; 20 mL 250 μg/mL each nostril twice daily, p=0.030
  mucosal thickening on CT scans compared to placebo: reduced

B1: trypsin: serine protease, positive control (protein, UniProt P00760 24-246, looked up)
Serine protease 1: IVGGYTCGANTVPYQVSLNSGYHFCGGSLINSQWVVSAAHCYKSGIQVRLGEDNINVVEGNEQFISASKSIVHPSYNSNTLNNDIMLIKLKSAASLNSRVASISLPTSCASAGTQCLISGWGNTKSSGTSYPDVLKCLKAPILSDSSCKSAYPGQITSNMFCAGYLEGGKDSCQGDSGGPVVCSGKLQGIVSWGSGCAQKNKPGVYTKVCNYVSWIKQTIASN
[9]
  cleavage of PAR-2 peptide substrate: clearly cleaved
[10]
  activation of human eosinophils by proteases: activated

Reference: patent US7972611B2, “Fungus-induced inflammation and eosinophil degranulation” (Mayo Foundation for Medical Education and Research, priority 2005, dated 2011)
